# Experimental data published in US7456225B1, “Liver protection compounds of the cyclohexenone type from Antrodia camphorata” (Golden Biotechnology Corporation, priority 2007, dated 2008).
# Marks after values point to notes of the source that are not given here.
# What was measured:
# [1] = system: CCl4-induced liver injury in rats; experiment: Weights of liver, kidney and spleen relative to body weight after CCl4-induced liver injury; assay type: in vivo, Sprague-Dawley (SD) rats; conditions: CCl4-treated rats, 8 weeks
# Protocol: (§1) The animal model was performed with five-week-old Sprague-Dawley (SD) rats purchased from BioLasco Taiwan Co., Ltd. Healthy rats weighing 220-270 g were chosen for experiment after observing for 2 weeks in the laboratory animal room. The rats were randomly divided into 6 groups (12 rats/group): normal (gp. A); control groups including model control (gp. B) and positive control (gp. C, animals receiving silymarin); treatment groups including animals receiving 300 mg/kg of cyclohexenone (gp. D), 1000 mg/kg of cyclohexenone (gp. E), and 3000 mg/kg of cyclohexenone (gp. F), as indicated in Table 1. Only normal group was not poisoned with CCl4. The body weights were recorded to calculate the dosage. […] It helps to remove toxins from liver cells by either neutralizing the toxicity of toxic compounds or competing with the binding sites in liver. It is a potent antioxidant, protects the liver from free radicals. It has been widely studied for treating various types of liver injury in animals and clinical trials. The beneficial effects on liver protection have made silymarin a good medicine for liver diseases and a drug in positive control group for the animal model of liver injury.
# (§2) Rats in normal group (group A) were fed with corn oil (Sigma chemical co.) by means of stomach tubes. Carbon tetrachloride (Shimakyu, Osaka, Japan) was administered to groups B to F via stomach tubes twice weekly (every Tuesday and Thursday afternoon) for 8 weeks, at a dose of 2 ml/kg of body weight, diluted with corn oil. Silymarin was prepared with saline in an amount of 200 mg/kg of body weight and was fed to rats of group C via a stomach tube. Cyclohexenone prepared from example 1 was mixed with saline, and fed in the amounts of 300 mg/kg, 1000 mg/kg and 3000 mg/kg of body weight to rats of group D to F via stomach tubes. The total feeding volume was estimated in the ratio of 10 ml/kg of body weight to groups C to F five days a week (every morning) for 8 weeks. The body weights of rats and the amounts of food intake in rats for each group were shown in FIG. 1 and FIG. 2, respectively.
# All rats were sacrificed at the end of the 8th week of experiment. The weights of liver, kidney and spleen were recovered and weighted and compared with the body weights to calculate the ratios and observe the effects of cyclohexenone from Antrodia camphorata to CCl4 treatment. All values are expressed as mean ±SD, which were evaluated using One-way Analysis of Variance. Those with significant differences were further tested with the Least Significant Difference Test (LSD) or Student t-test to compare cyclohexenone treatment groups and normal groups, positive control and model groups. P<0.05 was selected as criterion for statistical significance in all cases.
# [2] = system: CCl4-induced liver fibrosis in rats; experiment: Histological evaluation of liver fibrosis (Masson's trichrome, 0-4 scale); assay type: in vivo, Sprague-Dawley (SD) rats; conditions: for Liver fibrosis score: 0-4 scale, CCl4-treated rats, 8 weeks; for Liver fibrosis +, counts of pathological rats: level 1, portal fibrosis without septa; for Liver fibrosis ++, counts of pathological rats: level 2, incomplete septa; for Liver fibrosis +++, counts of pathological rats: level 3, intact septal fibrosis and bridging; for Liver fibrosis ++++, counts of pathological rats: level 4, complete thick septa, definite cirrhosis
# Protocol: as §1, §2
# The pathological changes of the liver surface were examined with naked eyes when the liver was taken out from rats, and then tissue sections were made. Half of each liver lobe was stored at −80° C. for antioxidant enzyme assay to follow up. The rest of liver tissues were fixed in 10% formalin for one week, embedded in paraffin cut into 2 μm sections, and stained with Hematoxyline-eosin (H&E) to visualize the lipid deposition, inflammation, cell necrosis and fibrosis, or stained with Masson's trichromic solution to visualize extracellular matrix and collagen fibers for liver fibrosis development. The pathological changes of liver injury were evaluated under light microscope (Opticphot-2, Nikon, Tokyo, Japan) after stained with the abovementioned solution.
# Liver fibrosis was evaluated semiquantitatively according to the scoring methods from Gabriele et al. (Gabriele, B. 1997. Silymarin retards collagen accumulation in early and advanced biliary fibrosis secondary to complete bile duct obliteration in rats. Hepatology 26: 643-649) and Wang et al. (Wang, G. S., Eriksson, L. C., Xia, L., Olsson, J. and Stal, P. 1999. Dietary iron overload inhibits carbon tetrachloride-induced promotion in chemical hepatocarcinogenesis: effects on cell proliferation, apoptosis, and antioxidation. J. Hepatol. 30(4):689-98.). Fibrosis was staged on a 0-4 scale: level 0, no fibrosis, normal liver tissue; level 1, proliferation of collagen, portal fibrosis without septa (proliferation of radiating fiber in central vein or periportal region); level 2, incomplete septa between central vein and periportal region (septa without bridging); level 3, intact septal fibrosis and bridging, many nodules in liver, the septa is thin; and level 4, complete thick septa, definite cirrhosis. The results are shown in FIG. 3 to FIG. 5, and Table 3.
structure (smiles),measurement,setting,value
"COC1=C(OC)C(O)C(C/C=C(\C)CC/C=C(\C)CCC=C(C)C)C(C)C1=O (centres unmarked) [Cyclohexenone from Antrodia camphorata, 4-hydroxy-2,3-dimethoxy-6-methyl-5(3,7,11-trimethyl-dodeca-2,6,10-trienyl)-cyclohex-2-enone]",kidney to body weight ratio,[1]; cyclohexenone 300 mg/kg,0.68 ± 0.06 %
same,liver to body weight ratio,[1]; cyclohexenone 300 mg/kg,3.29 ± 0.35%
same,spleen to body weight ratio,[1]; cyclohexenone 300 mg/kg,0.20 ± 0.05 %
same,kidney to body weight ratio,[1]; cyclohexenone 1000 mg/kg,0.69 ± 0.13%
same,liver to body weight ratio,[1]; cyclohexenone 1000 mg/kg,3.20 ± 0.47 %
same,spleen to body weight ratio,[1]; cyclohexenone 1000 mg/kg,0.22 ± 0.06 %
same,kidney to body weight ratio,[1]; cyclohexenone 3000 mg/kg,0.73 ± 0.08 %
same,liver to body weight ratio,[1]; cyclohexenone 3000 mg/kg,3.65 ± 0.53 %
same,spleen to body weight ratio,[1]; cyclohexenone 3000 mg/kg,0.30 ± 0.10 %
same,Liver fibrosis score,[2]; cyclohexenone 300 mg/kg,1.8*^a
same,Liver fibrosis score,"[2]; cyclohexenone 300 mg/kg, listed as cyclohexenone from Antrodia camphorata",1.8
same,Liver fibrosis score,[2]; cyclohexenone 1000 mg/kg,2.0*^a
same,Liver fibrosis score,[2]; cyclohexenone 3000 mg/kg,2.5*
same,"Liver fibrosis −, counts of pathological rats","[2]; level 0, no fibrosis, cyclohexenone 1000 mg/kg",2
same,"Liver fibrosis +, counts of pathological rats",[2]; cyclohexenone 300 mg/kg,6
same,"Liver fibrosis +, counts of pathological rats",[2]; cyclohexenone 1000 mg/kg,1
same,"Liver fibrosis +, counts of pathological rats",[2]; cyclohexenone 3000 mg/kg,2
same,"Liver fibrosis ++, counts of pathological rats",[2]; cyclohexenone 300 mg/kg,4
same,"Liver fibrosis ++, counts of pathological rats",[2]; cyclohexenone 1000 mg/kg,4
same,"Liver fibrosis ++, counts of pathological rats",[2]; cyclohexenone 3000 mg/kg,4
same,"Liver fibrosis +++, counts of pathological rats",[2]; cyclohexenone 300 mg/kg,1
same,"Liver fibrosis +++, counts of pathological rats",[2]; cyclohexenone 1000 mg/kg,3
same,"Liver fibrosis +++, counts of pathological rats",[2]; cyclohexenone 3000 mg/kg,3
same,"Liver fibrosis ++++, counts of pathological rats",[2]; cyclohexenone 300 mg/kg,1
same,"Liver fibrosis ++++, counts of pathological rats",[2]; cyclohexenone 1000 mg/kg,1
same,"Liver fibrosis ++++, counts of pathological rats",[2]; cyclohexenone 3000 mg/kg,2
